Measurements taken from patent US5670520A, “Method for inhibiting virus replication in mammalian cells using carbostyil derivatives” (Otsuka Pharmaceutical Co., Ltd., priority 1996, dated 1997).

Legend:
human T cells [1] = assay: [3H]thymidine incorporation by PHA-stimulated human T cells; assay type: cell-based; settings: 10 μg/ml PHA 48 hrs, 0-250 μM vesnarinone, 6 hrs pulse
Protocol: More specifically, human primary T cells were separated from peripheral blood obtained by leukopheresis of healthy donors. Mononuclear cell suspensions were prepared by Ficoll-Hypaque gradient centrifugation, and T cells were obtained by E-rosette enrichment as described by Kumagai et al, J. Cell. Physiol., 137:329 (1988).
Then, 1.0 μCi of [^3 H]thymidine (6.7 Ci/mmole, ICN), was added to 2.0×10^6 cells (100 μl), and the cells were pulse-labeled for 6 hrs.

human T cells [2] = assay: Cell numbers of PHA-stimulated human T cells over 120 hrs; assay type: cell-based; settings: 10 μg/ml PHA, 0-120 hrs; 250 μM vesnarinone, 15 nM aphidicolin or 100 μM deferoxamine
Protocol: Next, the effects of the above-described drugs on cell proliferation were evaluated over a period of 120 hrs.

U937 cells = assay: Intracellular AZT-MP, AZT-DP, AZT-TP in U937 cells by HPLC; settings: vesnarinone 75 μM (30 μg/ml); [3H]AZT 2 hr
Protocol: 1.0 ml fractions were collected, and the radioactivity was measured by liquid scintillation. The retention time for AZT and AZT-MP was confirmed using cold AZT and AZT-MP (Sigma) under the same conditions.
Intracellular concentrations of [^3 H]AZT-MP, [^3 H]AZT-DP, and [^3 H]AZT-TP were measured using HPLC as described above.

ZEBRA, R, EA-R, EA-D = assay: Western immunoblot of EBV early antigens in Akata cells; assay type: cell-based, Epstein-Barr virus; settings: 30 μg/ml vesnarinone
Protocol: 1 hr after release and transfer, the above-described anti-IgG antibody was added at a concentration of 50 μg/ml. 3 hrs and 20 hrs after treatment with the anti-IgG, the cells were harvested for the detection of EBV early antigens ZEBRA (BZLF1 product) by Western immunoblot.
More specifically, cells were washed with PBS, and then lysed at 4° C. in a buffer comprising 25 mM Tris-HCl (pH 7.4), 50 mM NaCl, 0.5% (w/v) sodium deoxycholate, 2.0% (v/v) Nonidet P-40, 0.2% (w/v) SDS, 1.0 mM phenyl-methane sulfonyl fluoride (PMSF), 10 μg/ml aprotinin, 10 μM leupeptin, and 100 μM sodium orthovanadate. After centrifugation, lysates were prepared for electrophoresis as described by Laemmli, Nature, 227:680-685 (1970). An amount of lysate equivalent to 4.0×10^5 cells was used for each immunoblot analysis.
After electrophoretic transfer of proteins to nitrocellulose filters and blocking the filters with 20 mM Tris-HCl (pH 8.0), 125 mM NaCl, 0.1% (v/v) Tween-20, 2.0% (w/v) BSA, and 0.1% (w/v) sodium azide, the filters were incubated with the appropriate primary antibody. For detection of ZEBRA (EB1, BZLF1 gene product), the antibody used was mouse monoclonal anti-EB1 (Z-125); for the detection of R (BRLF1 product), the antibody used was the mouse monoclonal anti-R (R5A9, provided by Dr. Evelyn Manet); for the detection of EA-R (BHRF1 product), monoclonal anti-EA-R (5B11, provided by Dr. Elliott Kieff) (Pearson et al, Virol., 160:151-161 (1987); and Henderson et al, Proc. Natl. Acad. Sci. USA, 90:8479-8483 (1993)), and for the detection of EA-D (BMRF1 product), the antibody used with the mouse monoclonal anti-EA-D (NEA-9240, DuPont, Boston, Mass. (Pearson et al, J. Virol., 47:193-201 (1983); and Kiehl et al, Virol., 184:330-340 (1991))).
Specific reactive bands were detected using anti-mouse secondary antibodies conjugated to alkaline phosphatase (Promega, Madison, Wis.) or horseradish peroxidase (Amersham) or ECL chemiluminescence (Amersham). That is, for detection of ZEBRA and R, alkaline phosphatase was used. For detection of EA-R and EA-D, horseradish peroxidase and the ECL chemiluminescence method was used (Amersham). Development was by the conventional methods, employing the colorogenic substrates bromochloroindolyl phosphate and nitroblue tetrazolium for alkaline phosphatase. The expression of ZEBRA reached a plateau level 3 hrs after stimulation and productive replication of EBV ceased 12 hrs after stimulation in this system.

[3] = test system: Akata, P3HR1, Jijoye, Raji; assay: Cell growth of Burkitt's lymphoma cell lines, 7 days; assay type: cell-based; settings: Homo sapiens, Burkitts lymphoma cell, 168 h; read-out: cell growth (cell numbers) relative to control cultures
EBNA2, LMP1, bcl-2 = assay: Western blot of EBNA2, LMP1 and bcl-2 in Burkitt's lymphoma cell lines; assay type: cell-based, human; settings: 20 μg/ml vesnarinone 7 days
From the text: The cell lines included Akata (type A, group I), Raji (type A, group III), P3HR1 (type B, group I) (ATCC No. HTB-62), and Jijoye (type B, group III) (ATCC No. CCL-87). The molecules examined were a latent nuclear protein, EBNA2, a latent membrane protein, LMP1, and an anti-apoptotic host component, bcl-2. […] These differences between the two phenotypes have been related to the sensitivity to induce apoptosis, and the ability to induce the productive phase of EBV infection (Henderson et al, Cell, 65:1107-1115 (1991); and Gregory et al, Nature, 349:612-614 (1991)).
For detection of EBNA2, LMP1, and bcl-2, the mouse monoclonal anti-EBNA2 (PE2, Accurate, Westbury, N.Y.) (Young et al, N. Engl. J. Med., 321:1080-1085 (1989)), the mouse monoclonal anti-LMP1 (S12, provided by Dr. David A. Thorley-Lawson) (Mann et al, J. Virol., 55:710-720 (1985)), and the monoclonal anti-bcl-2 (bcl-2/124, Accurate) (Pezzella et al, Am. J. Pathol., 137:225-232 (1990)), respectively, were used. The ECL chemiluminescence method was used for the detection of these proteins.

[4] = cited from earlier work

**Q.** For `COc1ccc(C(=O)N2CCN(c3ccc4c(c3)CCC(=O)N4)CC2)cc1OC` [vesnarinone, 3,4-dihydro-6-[4-(3,4-dimethoxybenzoyl)-1-piperazinyl]-2(1H)-quinoline], which “[3H]thymidine incorporation into DNA” value (human T cells [1]) is on record?
**A.** The value was “inhibits [^3 H]thymidine incorporation into DNA in a dose-dependent manner”.

**Q.** And the “cell proliferation (cell number)” value (human T cells [2])?
**A.** Its value is “inhibited cell proliferation when compared to control cultures, but increases in cell number were nonetheless observed”.

**Q.** What about the “increase of intracellular AZT-DP” value (U937 cells) of the same molecule?
**A.** The value was 45%.

**Q.** What about the “increase of intracellular AZT-MP” value (U937 cells) of the same molecule?
**A.** Its value is 100%.

**Q.** What about the “expression of ZEBRA (BZLF1)” value (ZEBRA, R, EA-R, EA-D; 3 hrs after anti-IgG) of the same molecule?
**A.** The value was “suppressed 3 hrs after stimulation with anti-IgG to a limited extent”.

**Q.** And the “expression of EA-R (BHRF1)” value (ZEBRA, R, EA-R, EA-D; 3 hrs and 20 hrs)?
**A.** The value was “expressed to the same degree 3 hrs and 20 hrs after stimulation”.

**Q.** What about the “expression of R (BRLF1)” value (ZEBRA, R, EA-R, EA-D; 3 hrs and 20 hrs) of the same molecule?
**A.** The value was “expressed virtually at the same level in the presence or absence of vesnarinone”.

**Q.** What about the “expression of EA-D (BMRF1)” value (ZEBRA, R, EA-R, EA-D; 20 hrs after stimulation) of the same molecule?
**A.** Its value is “dramatically suppressed in the presence of vesnarinone”.

**Q.** What about the activity at 20 µg/mL [3] of the same molecule?
**A.** The activity at 20 µg/mL was 80 to 90%.

**Q.** What about the “expression of EBNA2, LMP1, bcl-2” value (EBNA2, LMP1, bcl-2; group I lines (Akata, P3HR1)) of the same molecule?
**A.** The value was “did not induce these molecules in the group I lines”.

**Q.** And the “expression of EBNA2, LMP1, bcl-2” value (EBNA2, LMP1, bcl-2; group III lines (Raji, Jijoye))?
**A.** Its value is “nor did the vesnarinone alter levels of expression of these molecules in the group III lines”.

**Q.** And the “therapeutic range in vivo” value [4]?
**A.** The value was 2 to 80 µM.
